Experimental data as given in patent US7365191B2, “Type of oligosaccharides and their sulfate derivatives” (Shanghaimed Co., Ltd, priority 2001, dated 2008).

Assays:
spleen B lymphocytes = test: Immune enhancing activity: 3H-thymidine incorporation of spleen B lymphocytes from treated C57 mice, stimulated with Bal/bc lymphocytes; assay type: in vivo; conditions: 0.1 mL/d × 8d
Procedure: a. Medicine and reagents: synthetic lentinan hexaose 18, synthetic lentinan methyl α-heptaoside 24, synthetic lentinan octyl hexaoside 18′, lentinan (brand: Tian Di Xin) is produced by Nanjing Zhenzhong Biotech Ltd.
b. Animals: C57 mice were provided by Animal Center, Academia Sinica, weighing 20±2 g.
c. grouping and administration: the 50 mice were randomly allocated to 10 groups according to weight
The mice were injected IP with different doses of lentinan oligosaccharides listed above. […] Then the spleen B lymphocytes were extracted. The following experiment was then performed with the extracted lymphocytes: the 10^6 B cells were transferred to 96-well “U” shaped bottom plate, then the lymphocytes of Bal/bc mice were used as antigens to stimulate the B cells. After 4 days, ^3H-Thymidine was intermingled with the system and the B cells were collected 18 hours after. The isotopic incorporation was assessed by scintillation counting. Compared with positive control and minus control, the immuno-enhanced effect of these oligosaccharides was evaluated.

U14 tumor cells = test: Inhibition of U14 tumor implanted in mice; conditions: for inhibition (%) / quotient of noumenal tumor (%): U14 implanted mice; for quotient of noumenal tumor (%): ±SD
Procedure: Thus, the inhibition of tumor cells by the said oligosaccharides was tested using implanted tumor cells in mice. • (1) Tests of the said Oligosaccharides and their Sulfates on Mice in which Tumor Cells were Implanted. A. Materials and Methods
Cell line for the tests: U14 cell line was procured from The Tumor Research Group, The Institute of Chinese Herbal Medicine, Chinese Academy of Traditional Chinese Medicine;
Animals for the tests: 70 Kunming male mice (weight 20±2 g, grade II) were obtained from the Experimental Animal Center, the Chinese Academy of Medicine.
Medicine for control test: Cyclophosphamide was obtained from Shanghai Hualian Pharmaceutical Ltd, permit number 012034, 1995, Shanghai.
Mice grouping and administration: • a. U14 cell line group: physical saline, IP, 0.2 mL/d×10 d • b. Group treated with hexasaccharide 18: IP 10 mg/kg×10 d, 0.2 mL/d • c. Group treated with octyl hexaoside 18′: IP 10 mg/kg×10 d, 0.2 mL/d • d. Group treated with heptasaccharide 24: IP 10 mg/kg×10 d, 0.2 mL/d • e. Group treated with sulfated hexaose 25: IP 10 mg/kg×10 d, 0.2 mL/d • f. Group treated with cyclophosphamide: IP, 70 mg/kg×10 d, 0.1 mL/d (Cyclophosphamide was given to the mice by intraperitoneal at 24 h after the planting. After 48 h of the 1st injection, the 2nd injection was given, and after 48 h of the 2nd injection, the last injection was given). Test: U14 cells obtained from U14 mouse were diluted and counted. Each mouse was implanted with 0.2 ml (corresponding to 4×10^6 cells). A total of sixty mice were implanted. B. Test Results
1 h post administration of the last dose, the mice were weighed. The right-upper arm of the mice was cut after sterilization, and the tumor section was removed. The quotient of noumenal tumor (%) and inhibition (%) were calculated.

[1] = tested on: leukocyte infiltrate in air pouch; test: Thioglycollate-induced air pouch inflammation in mice; assay type: in vivo, mouse; conditions: dose 25 mg/kg subq.
Procedure: Test method: Subcutaneous air pouches were formed on the backs of mice by injecting 5 mL of sterile air below the skin of a shaved area between the scapulae of an anaesthetized mouse. After 2 days post-injection the pouch was reinflated by the injection of 2.5 mL of air. Inflammation was induced on day 6 by injecting directly into the pouch 1.0 mL of 56 mg/mL thioglycollate or 1.0 mL of saline as a control. Approximately 17-20 h after thioglycollate injection, the animals were killed, and the cellular contents of the pouch retrieved by the injection of 2.5 mL of PBS/5% FCS. The sulfated octyl hexaoside 25 was tested for its ability to inhibit the inflammatory reaction by being injected subq. in a separate site immediately following administration of the thioglycollate. Prednisolone was used as a control anti-inflammatory drug, and was injected subq. at 25 mg/kg. The total cellular contents of each pouch were determined using a Coulter Counter and different leukocyte subpopulations were assessed by immunofluorescent flow cytometry.

[2] = IP 10 mg/kg, relative to control
[3] = IP 10 mg/kg×10 d (dose of 17 not given)

Structure (SMILES) | 3H-TdR incorporation (spleen B lymphocytes; IP 1 mg/kg, control 3394) | enhancement rate (%) (spleen B lymphocytes; IP 1 mg/kg, control = 100) | 3H-TdR incorporation (spleen B lymphocytes; IP 10 mg/kg, control 3045) | enhancement rate (%) (spleen B lymphocytes; [2]) | inhibition (%) (U14 tumor cells; [3]) | quotient of noumenal tumor (%) (U14 tumor cells; [3]) | inhibition (%) (U14 tumor cells; cyclophosphamide IP 70 mg/kg) | quotient of noumenal tumor (%) (U14 tumor cells; cyclophosphamide IP 70 mg/kg) | weight (U14 tumor cells; mouse weight 1 h after last dose, cyclophosphamide IP 70 mg/kg) [g] | leukocyte infiltrate in air pouch in comparison to the control [1] [%]
CCCCCCCCOC1OC(COC2OC(CO)C(O)C(O)C2O)C(O)C(OC2OC(CO)C(O)C(OC3OC(COC4OC(CO)C(O)C(O)C4O)[C@@H](O)C(OC4OC(CO)C(O)C(O)C4O)C3O)C2O)C1O (stereo partly shown) [18′] | 5547 | 163 | 6082 | 200 | 58.43 | 1.54 ± 0.56 |  |  |  | 
OCC1OC(OCC2OC(O)C(O)C(OC3OC(CO)C(O)C(OC4OC(COC5OC(CO)C(O)C(O)C5O)[C@@H](O)C(OC5OC(CO)C(O)C(O)C5O)C4O)C3O)C2O)C(O)C(O)C1O (stereo partly shown) [compound 18] | 5497 | 162 | 6084 | 200 | 29.41 | 2.63 ± 0.90 |  |  |  | 
COC1OC(CO)[C@@H](O)C(O[C@H]2OC(CO[C@@H]3OC(CO)[C@@H](O)C(O)C3O)[C@@H](O)C(O[C@@H]3OC(CO)[C@@H](O)C(O[C@H]4OC(CO[C@@H]5OC(CO)[C@@H](O)C(O)C5O)[C@@H](O)C(O[C@@H]5OC(CO)[C@@H](O)C(O)C5O)C4O)C3O)C2O)C1O (stereo partly shown) [compound 24] | 5546 | 163 | 5087 | 167 | 41.21 | 2.54 ± 1.89 |  |  |  | 
O=P1(N(CCCl)CCCl)NCCCO1 (stereo not shown) [cyclophosphamide, Cyclophosphamide, reference compound] |  |  |  |  |  |  | 43.89 | 1.86 ± 0.73 | 28.00 ± 1.78 | 
C[C@]12C=CC(=O)C=C1CC[C@@H]1[C@@H]2[C@@H](O)C[C@@]2(C)[C@H]1CC[C@]2(O)C(=O)CO [prednisolone, Prednisolone] |  |  |  |  |  |  |  |  |  | 56±14
